Measurements reported in US10328053B2 (Gilead Sciences, Inc., priority 2016, dated 2019).
pEC50: −log10 of the molar value.

Key:
[1] = test system: HBV AD38 viral particles in HepG2 cell line overexpressing NTCP; assay: HBV DNA Quantification Assay; format: cell-based; conditions: Hepatitis B virus, HepG2, 120 h, HBV-infected HepG2-NTCP cells, 5 days incubation, HBV DNA in culture supernatant (QuantiGene 2.0); geometric mean of a minimum of four determinations
Procedure: HBV DNA Quantification Assay
A HepG2 cell line overexpressing the HBV virus attachment receptor sodium-taurocholate cotransporting polypeptide (NTCP) was grown to confluency in DMEM growth medium, Dulbecco's Modified Eagle Medium without sodium pyruvate (Life Technologies, Rockville, Md.) supplemented with 10% FBS (Thermo Scientific, Waltham, Md.), 1% penicillin/streptomycin (Life Technologies, Rockville, Md.) and 2 mM L-glutamine (Life Technologies, Rockville, Md.) in T175 flasks. Cells were infected with HBV AD38 viral particles (Texcell, Frederick, USA) at 4000 genome equivalents per cell. After allowing viral infection to take place for 4 days, the infected cells were harvested from the flasks by trypsinization, washed twice with OptiMEM (Life Technologies, Rockville, Md.) and re-suspended in DMEM containing 2% FBS and 1% DMSO at a density of 0.25E6 cells/ml. Infected cells were seeded on 384 well collagen coated plates (Greiner, Austria) at a density of 20,000 cells/well containing serially diluted compounds of the present disclosure or DMSO (0.5%) in a final volume of 80 μl. The assay plates were incubated for a period of 5 days and the antiviral activity of the test compounds were assayed by detecting the presence of HBV DNA in the culture supernatant using the QuantiGene™ 2.0 nucleic acid quantification kit (Affymetrix, Santa Clara, Calif.).
The culture supernatant was harvested and treated with lysis buffer containing Proteinase K (Affymetrix, Santa Clara, Calif.). The supernatant was incubated with HBV viral DNA specific probes (Affymetrix, Santa Clara, Calif.) for 30 minutes at 55° C. This was followed by addition of 0.2M NaOH for 30 minutes at room temperature to denature the DNA, followed by addition of Neutralization buffer (Affymetrix, Santa Clara, Calif.). The resulting lysed and neutralized supernatant was then added to QuantiGene™ 2.0 384 well plates coated with capture oligonucleotides and incubated overnight at 55° C. The HBV specific probe set consists of Capture Extender oligonucleotides (CE's) and blocking probes. Following the overnight incubation, the wells were incubated for one hour sequentially with a Pre-Amplifier, Amplifier and Labeled probes conjugated to alkaline phosphatase with a wash step between incubations. After the final wash step, the alkaline phosphatase substrate (Luminol APS5) was added and the resulting luminescence signal was read in an EnVision Multilabel Plate Reader (PerkinElmer, Santa Clara, Calif.). The EC50 values were calculated from the fit of the dose—response curves to a four-parameter equation. All EC50 values represent geometric mean values of a minimum of four determinations.

[2] = Hepatic Stability Assay (in vitro half-life method); format: in vitro ADME; parameters: dose or concentration left out as unconfirmed; conditions: pooled cryopreserved hepatocytes, 37° C., 1×10^6 cells/mL, 0-6 hours, LC-MS/MS, 39.5 hours is the maximum detectable half life, read-out: t½ (converted)
Summary of the method: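 Pooled cryopreserved hepatocytes (1×10^6 cells/mL) incubated with compound at […] test concentration, 37° C.; samples at 0, 1, 3 and 6 h quantified by LC-MS/MS. Half-life from rate of compound disappearance, scaled to predicted hepatic clearance via well-stirred model.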

SMILES | pEC50 [1] | half-life [2]
Cc1c(C(=O)C(=O)NC2(CNC3(C)CS(=O)(=O)C3)CC(F)(F)C2)c2n(c1C(=O)Nc1ccc(F)c(Cl)c1)CCC2 [Example 8, N-(3-chloro-4-fluorophenyl)-7-(2-((3,3-difluoro-1-(((3-methyl-1,1-dioxidothietan-3-yl)amino)methyl)cyclobutyl)amino)-2-oxoacetyl)-6-methyl-2,3-dihydro-1H-pyrrolizine-5-carboxamide] | 7.14 | 0.4 h
Cc1c(C(=O)C(=O)NC2(c3c[nH]nn3)CC2)c2n(c1C(=O)Nc1ccc(F)c(Cl)c1)C[C@@H](F)C2 [Example 46, (S)-7-(2-((1-(1H-1,2,3-triazol-4-yl)cyclopropyl)amino)-2-oxoacetyl)-N-(3-chloro-4-fluorophenyl)-2-fluoro-6-methyl-2,3-dihydro-1H-pyrrolizine-5-carboxamide] | 6.58 | 16 h
CNC(=O)C1(NC(=O)C(=O)c2c(C)c(C(=O)Nc3ccc(F)c(C#N)c3)n3c2CCC3C)CC(F)(F)C1 (centres unmarked) [Example 19, N-(3-cyano-4-fluorophenyl)-7-(2-((3,3-difluoro-1-(methylcarbamoyl)cyclobutyl)amino)-2-oxoacetyl)-3,6-dimethyl-2,3-dihydro-1H-pyrrolizine-5-carboxamide] | 6.78 | 18.3 h
Cc1c(C(=O)C(=O)NC2(c3c[nH]nn3)CC(F)(F)C2)c2n(c1C(=O)Nc1cc(F)c(F)c(F)c1)[C@@H]1C[C@@H]1C2 [Example 40, (1aR,6aR)-5-(2-((3,3-difluoro-1-(1H-1,2,3-triazol-4-yl)cyclobutyl)amino)-2-oxoacetyl)-4-methyl-N-(3,4,5-trifluorophenyl)-1,1a,6,6a-tetrahydrocyclopropa[b]pyrrolizine-3-carboxamide] | 8.72 | 5.2 h
Cc1c(C(=O)C(=O)NC2(c3c[nH]nn3)CC2)c2n(c1C(=O)Nc1cccc(C#N)c1)CCC2 [Example 75, 7-(2-((1-(1H-1,2,3-triazol-4-yl)cyclopropyl)amino)-2-oxoacetyl)-N-(3-cyanophenyl)-6-methyl-2,3-dihydro-1H-pyrrolizine-5-carboxamide] | 6.97 | 17.3 h
Cc1c(C(=O)C(=O)NC2(c3ccccc3)CC2)c2n(c1C(=O)Nc1ccc(F)c(Cl)c1)CCC2 [Example 66, N-(3-chloro-4-fluorophenyl)-6-methyl-7-(2-oxo-2-((1-phenylcyclopropyl)amino)acetyl)-2,3-dihydro-1H-pyrrolizine-5-carboxamide] | 8.19 | 1.4 h
CNC(=O)C1(NC(=O)C(=O)c2c(C)c(C(=O)Nc3ccc(F)c(Cl)c3)n3c2[C@@H]2C[C@@H]2C3)CC(F)(F)C1 [Example 33, (1aS,6bR)—N-(3-chloro-4-fluorophenyl)-6-(2-((3,3-difluoro-1-(methylcarbamoyl)cyclobutyl)amino)-2-oxoacetyl)-5-methyl-1,1a,2,6b-tetrahydrocyclopropa[a]pyrrolizine-4-carboxamide] | 7.57 | 4.3 h
Cc1c(C(=O)C(=O)NC2(c3nncs3)CC2)c2n(c1C(=O)Nc1ccc(F)c(Cl)c1)[C@@H]1C[C@@H]1C2 [Example 54, (1aR,6aR)-5-(2-((1-(1,3,4-thiadiazol-2-yl)cyclopropyl)amino)-2-oxoacetyl)-N-(3-chloro-4-fluorophenyl)-4-methyl-1,1a,6,6a-tetrahydrocyclopropa[b]pyrrolizine-3-carboxamide] | 8.11 | 6.7 h
Cc1c(C(=O)C(=O)NC2(c3c[nH]nn3)CC2)c2n(c1C(=O)Nc1ccc(F)c(Cl)c1)CCC2 [Example 6, 7-(2-((1-(1H-1,2,3-Triazol-4-yl)cyclopropyl)amino)-2-oxoacetyl)-N-(3-chloro-4-fluorophenyl)-6-methyl-2,3-dihydro-1H-pyrrolizine-5-carboxamide] | 7.95 | 8.2 h
Cc1c(C(=O)C(=O)NC2(C(=O)N3CC4(C3)CN(S(C)(=O)=O)C4)CC(F)(F)C2)c2n(c1C(=O)Nc1ccc(F)c(Cl)c1)CCC2 [Example 28, N-(3-chloro-4-fluorophenyl)-7-(2-((3,3-difluoro-1-(6-(methylsulfonyl)-2,6-diazaspiro[3.3]heptane-2-carbonyl)cyclobutyl)amino)-2-oxoacetyl)-6-methyl-2,3-dihydro-1H-pyrrolizine-5-carboxamide] | 6.95 | 11.8 h
Cc1c(C(=O)C(=O)NC2(C)CS(=O)(=O)C2)c2n(c1C(=O)Nc1ccc(F)c(Cl)c1)CCC2 [Example 21, N-(3-chloro-4-fluorophenyl)-6-methyl-7-(2-((3-methyl-1,1-dioxidothietan-3-yl)amino)-2-oxoacetyl)-2,3-dihydro-1H-pyrrolizine-5-carboxamide] | 7.70 | 17.1 h
Cc1c(C(=O)C(=O)NC2(c3c[nH]nn3)CC2)c2n(c1C(=O)Nc1ccc(F)c(F)c1F)CCC2 [Example 111, 7-(2-((1-(1H-1,2,3-triazol-4-yl)cyclopropyl)amino)-2-oxoacetyl)-6-methyl-N-(2,3,4-trifluorophenyl)-2,3-dihydro-1H-pyrrolizine-5-carboxamide] | 6.81 | 10.1 h
Cc1c(C(=O)C(=O)NC2(C(=O)N3CC(F)C3)CC(F)(F)C2)c2n(c1C(=O)Nc1ccc(F)c(Cl)c1)CCC2 [Example 14, N-(3-chloro-4-fluorophenyl)-7-(2-((3,3-difluoro-1-(3-fluoroazetidine-1-carbonyl)cyclobutyl)amino)-2-oxoacetyl)-6-methyl-2,3-dihydro-1H-pyrrolizine-5-carboxamide] | 8.06 | 2.1 h
Cc1c(C(=O)C(=O)NC2(c3c[nH]nn3)CC2)c2n(c1C(=O)Nc1cc(F)c(F)cc1F)CCC2 [Example 90, 7-(2-((1-(1H-1,2,3-triazol-4-yl)cyclopropyl)amino)-2-oxoacetyl)-6-methyl-N-(2,4,5-trifluorophenyl)-2,3-dihydro-1H-pyrrolizine-5-carboxamide] | 6.74 | 31.4 h
Cc1c(C(=O)C(=O)NC2(c3c[nH]nn3)CC(F)(F)C2)c2n(c1C(=O)Nc1ccc(F)c(C#N)c1)[C@@H]1C[C@@H]1C2 [Example 41, (1aR,6aR)—N-(3-cyano-4-fluorophenyl)-5-(2-((3,3-difluoro-1-(1H-1,2,3-triazol-4-yl)cyclobutyl)amino)-2-oxoacetyl)-4-methyl-1,1a,6,6a-tetrahydrocyclopropa[b]pyrrolizine-3-carboxamide] | 8.12 | 4.9 h
Cc1c(C(=O)C(=O)NC2(c3c[nH]nn3)CC(F)(F)C2)c2n(c1C(=O)Nc1ccc(F)c(Cl)c1)[C@@H]1C[C@@H]1C2 [Example 39, (1aR,6aR)—N-(3-chloro-4-fluorophenyl)-5-(2-((3,3-difluoro-1-(1H-1,2,3-triazol-4-yl)cyclobutyl)amino)-2-oxoacetyl)-4-methyl-1,1a,6,6a-tetrahydrocyclopropa[b]pyrrolizine-3-carboxamide] | 8.68 | 4.2 h
Cc1c(C(=O)C(=O)NC2(c3cnn[nH]3)CC2)c2n(c1C(=O)Nc1ccc(F)c(Cl)c1F)CCC2 [Example 84, 7-(2-((1-(1H-1,2,3-triazol-5-yl)cyclopropyl)amino)-2-oxoacetyl)-N-(3-chloro-2,4-difluorophenyl)-6-methyl-2,3-dihydro-1H-pyrrolizine-5-carboxamide] | 7.51 | 10.7 h
Cc1c(C(=O)C(=O)NC2(c3c[nH]nn3)CC(F)(F)C2)c2n(c1C(=O)Nc1ccc(F)cc1)C[C@H](F)C2 [Example 48, (R)-7-(2-((3,3-difluoro-1-(1H-1,2,3-triazol-4-yl)cyclobutyl)amino)-2-oxoacetyl)-2-fluoro-N-(4-fluorophenyl)-6-methyl-2,3-dihydro-1H-pyrrolizine-5-carboxamide] | 8.19 | 7.9 h
Cc1c(C(=O)C(=O)NC2(c3c[nH]nn3)CC(F)(F)C2)c2n(c1C(=O)Nc1ccc(F)c(C(F)F)c1)CCC2 [Example 89, 7-(2-((3,3-difluoro-1-(1H-1,2,3-triazol-4-yl)cyclobutyl)amino)-2-oxoacetyl)-N-(3-(difluoromethyl)-4-fluorophenyl)-6-methyl-2,3-dihydro-1H-pyrrolizine-5-carboxamide] | 8.54 | 10.3 h
